Source: patent US7319087B2, “Antimicrobial polypeptide from Aspergillus niger” (Novozymes A/S, priority 2001, dated 2008)
No end group written: not given here.

Columns and labels:
A. niger MBin118 = assay: Growth of transformants expressing the polypeptide in tubes with YPM (2% maltose); format: cell-based, Aspergillus niger; settings: A. niger MBin118 transformed with expression plasmid, 6 days, 10 ml YPM (2% maltose)
From the text: (§1) The A. niger anti-microbial polypeptide was inserted in the Aspergillus expression vector pMT2188 to give pMT2446 (i.e., pMT2188 with an insert comprising the A. niger anti-microbial gene): pMT2446 was transformed into A. oryzae BECh2 (disclosed, e.g., on page 26 of WO 00/39322) and into A. niger MBin118. Thirty transformants of each strain were re-isolated twice under selective and non-inducing conditions on Cove minimal plates with sucrose and acetamide. To test expression of the anti-microbial polypeptide, transformants were grown for 6 days in tubes with 10 ml YPM (2% maltose). Supernatants were run on NuPage 10% Bis-Tris SDS gels with MES running buffer to allow separation in the low mw range.

A. oryzae BECh2 = assay: as above; format: cell-based, Aspergillus oryzae; settings: A. oryzae BECh2 transformed with expression plasmid, 6 days, 10 ml YPM (2% maltose)
From the text: as §1

[1] = A. giganteus peptide, 51 amino acids; Campos-Olivas et al. (1995); cited from earlier work

Substance	growth on YPM of host transformants (A. niger MBin118)	growth on YPM of host transformants (A. oryzae BECh2)	pl [1]
A. giganteus anti-fungal polypeptide (AFP): A. giganteus anti-fungal polypeptide (AFP) disclosed in WO 94/01459 (ATYNGKCYKKDNICKYKAQSGKTAICKCYVKKCPRDGAKCEFDSYKGKCYC; UniProt P17737 44-94, looked up)	Growth was inhibited	Growth was inhibited	–
A. giganteus peptide: anti-fungal peptide from Aspergillus giganteus (Nakaya et al. 1990), 51 amino acids, four S-S bridges (ATYNGKCYKKDNICKYKAQSGKTAICKCYVKKCPRDGAKCEFDSYKGKCYC; disulfide (positions not given here); not fully specified (bridges); also: four S-S bridges, pairing not given here; UniProt P17737 44-94, looked up)	–	–	9.3
A. niger anti-microbial polypeptide: 58 amino acid mature polypeptide with anti-microbial activity from Aspergillus niger, SEQ ID NO: 2 (positions 1 to 58), expressed from pMT2446 (MQLTSIAIILFAAMGAIANPIAAEADNLVAREAELSKYGGECSVEHNTCTYLKGGKDH; Aspergillus niger)	seemed to grow normally	seemed inhibited	–
